How the values were obtained:
DU-145 = assay: NCI60 antiproliferative screen, prostate DU-145; assay type: cell-based, human; settings: DU-145, 48 h, sulforhodamine B; read-out: Cytotoxicity (GI50) prostate DU-145
Outline: (§1)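 Cells were exposed to compounds at 100, 10, 1, 0.1 and 0.01 μM for 48 h, then stained with sulforhodamine B. Optical density relative to control was plotted as percentage growth versus log10 concentration, and GI50 was interpolated between the points bracketing 50% growth.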

[1] = Stability of compound 17 in cell culture medium; assay type: physicochemical; settings: 10 μM, cell-free RPMI 1640 medium, 37° C., after 99 hours
Experimental: In order to investigate the possibility that hydrolysis of the prodrugs takes place extracellularly rather than intracellularly, compound 17 was added to cell-free cell culture medium and the mixture was incubated at 37° C. Relatively slow conversion to the parent phenol 9 was observed, with 22% conversion after 99 hours.
Stability of Compound 17 in Cell Culture Medium.
RPMI 1640 medium was purchased from Sigma-Aldrich (St. Louis, Mo.). Compound 17 (10 μM) was incubated at 37° C. with RPMI 1640 medium. After 99 h, an aliquot was taken from the incubation mixture and filtered prior to analysis using LC-MS (Waters, Germany). The flow rate was 0.75 mL/min and the eluent was recorded with a DAD at 280 nm.

OVCAR-3 = assay: NCI60 antiproliferative screen, ovarian OVCAR-3; assay type: cell-based, human; settings: OVCAR-3, 48 h, sulforhodamine B; read-out: Cytotoxicity (GI50) Ovarian OVCAR-3
Outline: as §1

[2] = system: all human cancer cell lines successfully tested (NCI60); assay: NCI60 mean graph midpoint for growth inhibition; assay type: cell-based; settings: all human cancer cell lines successfully tested; ± standard error; read-out: MGM (mean graph midpoint for growth inhibition)
Outline: as §1

- conversion to the parent phenol 9 [1]: 22%
SMILES: COC(=O)CCC(=O)Oc1cc2c(=O)n(CCCN3CCOCC3)c3c(c2cc1OC)C(=O)c1cc2c(cc1-3)OCO2 [Compound 17, 2-Methoxy-6-(3-morpholinopropyl)-5,12-dioxo-6,12-dihydro-5H-[1,3]dioxolo[4′,5′:5,6]indeno[1,2-c]isoquinolin-3-yl Methyl Succinate]
- GI50 (DU-145): 14 nM
- GI50 (OVCAR-3): 37 nM
- mean GI50 across NCI60 cell lines (MGM) [2]: 36 ± 18 nM

Reference: patent US20190218226A1, “PRODRUGS OF ANTICANCER AGENTS INDOTECAN AND INDIMITECAN” (Purdue Research Foundation, priority 2016, published 2019)
